In patent US20150079029A1, “METHODS AND COMPOSITIONS FOR INHIBITING ANGIOGENESIS” (Oncology Research International Limited, priority 2006, published 2015):

Legend:
aortic explants = experiment: Vessel growth (sprouts and branches) from mouse aortic explants in collagen gel; assay type: cell-based, C57BL6/J mice; settings: for Branches Mean / Sprouts Mean: 1 μL/mL DMSO, 6 days culture, 8 replicates
Procedure: Three male C57BL6/J mice (9 weeks old) were sacrificed by CO2 asphyxiation and the blood harvested by heart puncture using a 29 gauge needle. The aorta was then dissected (from the aortic arch to the pleural/peritoneal interface) and placed in ice-cold DMEM supplemented with 10 mM Hepes and penicillin/streptomycin.
The fibrous and adipose tissues surrounding the aorta were removed by microscopic dissection and the aorta flushed of blood using ice cold DMEM. The aorta was then longitudinally bisected and cut into approximately 1 mm squares. Individual pieces of aorta were embedded in a drop (20 μL) of collagen solution in the bottom of a well of a 24 well tissue culture plate. The plates were then placed at 37° C./5% CO2 for 10 minutes to polymerise the collagen into a gel. Media (0.3 mL) alone, containing DMSO or deltonin in DMSO was then added to each well to form a moat around the collagen gel.
Only the central 8 wells of each 24 well plate were used for explant cultures to avoid differential gaseous exchange and evaporation rates between explant sample wells. The outer wells were filled with PBS.
Nine groups of 8 replicates each were tested:
The explants were then cultured at 37° C./5% CO2 in a humid incubator for 6 days. Explants were fixed at room temperature for 20 minutes by adding an equal volume (0.3 mL) of 4% paraformaldehyde in PBS to each well. After washing three times with HEPES-buffered saline (HBS, 150 mM NaCl, 10 mM HEPES) the explants were stained with 10 μg/ml FITC-BS-1 lectin conjugate (BS-1 lectin specifically binds mouse endothelial cells) in HBS overnight at 4° C. The following day the explants were washed three times with HBS. Vessel outgrowths from explants were visualised by fluorescence microscopy and photographs taken for data analysis. Multiple multidepth focus fluorescent images were photographed for each explant and the photographs processed using deconvolution software so that total vessel outgrowth for each explant could be determined Total cellular growth associated with each explant was also visualised by light microscopy using a dissecting microscope and documented by photography. For ease of visualisation and analysis a composite inverted black and white image was prepared from the multiple fluorescent images of the vessel outgrowths for each explant. The number of vessel sprouts and the number of vessel branches for each explant was then counted with the person counting being blinded to the identity of each sample. The results are summarised in Table 4, and shown graphically in FIG. 1.

[1] = system: angiogenesis induced by bFGF in angiochambers; experiment: AngioChamber assay: bFGF-induced fibrous capsule formation and haemoglobin (Drabkin) blood content; assay type: in vivo, FvB mice; settings: i.p. once daily for 5 days, dioscin 10, deltonin 10, trillin 60, prosapogenin A 20, sorafenib 60 mg/kg; for Average blood content (from haemoglobin content): Drabkin assay; for Average chamber weight: wet weight on Day 6
Description: The AngioChamber™ assay utilises the normal physiological process of wound healing, which promotes the formation of a fibrous capsule around an implanted chamber (Wood et al, (2000) Cancer Research, 60(8):2178-89). The inclusion of bFGF in the chamber induces blood vessel development in the fibrous capsule. The assay therefore assesses the efficacy of treatments by gauging their effect both on the fibrous capsule formation, measured by the wet weight of the capsule at the termination of the study and by determination of blood vessel supply to the chamber by assaying for haemoglobin content. The haemoglobin content of the fibrous capsule is a measure of neovascularisation, which is assayed by the Drabkin Assay.
The angiochambers were porous tissue chambers made of perfluoro-alkoxy-Teflon and filled with 0.8% agar containing 20 IU/mL heparin, with or without 1 μg/mL human bFGF. Both ends of the chamber were sealed with removable caps of the same material. The chambers were filled under sterile conditions with 0.8% agar containing 20 IU/mL heparin, with or without 1 μg/mL human bFGF. The agarose solution was maintained at 37° C. prior to filling the chambers.
70 female FvB mice were microchipped, weighed and randomised based on body weight into 7 groups with 10 mice per group. For implantation, the mice were anaesthetised by halothane inhalation. Approximately 150 μL sterile filtered air was injected subcutaneously in the back of each mouse, between the shoulder blades, resulting in an air pocket in which a small incision was made and the chamber inserted. The wound was closed with two 1.4 mm wound clips.
The treatments, which were all formulated in NMP:PEG300:Water (1:9:10, v/v) and administered daily by intraperitoneal injection, were as given in the Table 7:
Treatment was started when all the animals had recovered fully from anaesthesia, and continued for 5 days. On Day 6, the vascularised fibrous chambers were removed and the wet weight recorded for each implant. The chamber from each mouse was then snap frozen with liquid nitrogen and stored at −20° C. until assessed for haemoglobin content.
The fibrous capsule samples were thawed and kept on ice during the procedure. Sterile water was added to each thawed sample, and the sample homogenised with an UltraTourax at high speed. To avoid cross-contamination, the UltraTourax was flushed for 30 seconds with 5 mL distilled water after homogenising each sample. The homogenate was transferred into 2 mL Eppendorf tubes and stored on ice. The Eppendorf tubes were centrifuged at 4° C. and high speed (14,000 relative centrifugal force (RCF)) for 60 min. 1.0-1.5 mL of the intermediate aqueous solution (homogenate), between the pellet and the fat layer, was then transferred to fresh labelled 1.5 mL Eppendorf tubes and stored on ice. 50 μL of each homogenate was transferred into separate wells of a 96-well plate. 50 μL of water was transferred into 2 wells as blanks. 50 μL of Drabkin's reagent was then added to each well and mixed. After 15 min incubation at room temperature, the absorbance of each sample at 540 nm was measured and the volume of blood for each sample calculated from a standard curve.
The Percent Induction for a treatment is the difference in blood content between the treatment (+bFGF) and the vehicle alone (no bFGF), divided by the difference in blood content between the vehicle with bFGF and the vehicle alone (no bFGF), expressed as a percentage.

[2] = system: angiogenesis induced by bFGF in angiosponges; experiment: AngioSponge assay: bFGF-induced neovascularisation of implanted gelfoam, CD31 staining; assay type: in vivo, C3H/Hej mice; settings: i.p. once daily for 10 days, dioscin 10, deltonin 10, trillin 60, prosapogenin A 20, sorafenib 60 mg/kg; for Average number of blood vessels (CD31 counts): sponges excised Day 11
Description: The AngioSponge™ assay enables slow release of agarose-captured growth factor, which stimulates endothelial cell proliferation and migration, and provides a tissue-like matrix for neovascularisation. The assay can be therefore be used to gauge the efficacy of treatments designed to inhibit angiogenesis, determined by counting blood vessels after CD31 immunohistochemical staining of endothelial cells (McCarty et al, International Journal of Oncology, 21:5-10, 2002).
Gelfoams (Pharmacia & Upjohn) were cut into approximately 7×7×7 mm pieces, under sterile conditions, and pre-soaked over night with sterile phosphate buffered saline. The hydrated gelfoams were then partially dried. Growth factor (bFGF) was diluted to an initial concentration of 2 μg/mL in warm (37° C.) 0.4% agarose. The partially dried gelfoams were placed in the growth factor solution, or in warm 0.4% agarose without growth factor, and then transferred to a Petri dish containing warm 0.4% agarose (1:1 dilution, final growth factor concentration 1 μg/mL) for polymerisation and solidification.
70 female C3H/Hej mice were microchipped, weighed and randomised based on body weight into 7 groups with 10 mice per group. For implantation, the mice were anaesthetised by halothane inhalation. A small channel forged with a trocar needle between the 3rd and 4th mammary gland, the sponge was inserted to the full depth of the channel and the incision closed with a wound clip.
The compounds were formulated in N-methylpyrrolidone (NMP):PEG300:Water (1:9:10, v/v). Dosing was established on the basis of in vitro IC50 data and preliminary toxicity studies. Compounds were administered daily by intraperitoneal injection, at a dosing volume of 10 mL/kg, once daily for the study period as shown in Table 5.
Treatment was started when all the animals had recovered fully from anaesthesia, and continued for 10 days. On Day 11, the angiosponges were excised and snap frozen in liquid nitrogen with OCT for CD31 staining on frozen sections.
CD31/PECAM-1 is an antigen present specifically on endothelial cells and can therefore be used as a marker for blood vessels. Frozen samples of the sponge were cryo-sectioned (12 μm), mounted on positively-charged Plus slides (Fisher Scientific), and air-dried for 30 minutes. Frozen sections were in turn fixed in cold acetone, acetone/chloroform (1:1, v/v), and acetone for 5 min each, and then washed with PBS (phosphate buffer saline). After blocking with PBS containing 5% normal horse serum and 1% normal goat serum, sections were incubated with PECAM-1 monoclonal rat anti-mouse CD31 antibody (1:5000 in blocking solution, PharMingen, San Diego, Calif.) for 4 hours at room temperature. The slides were then washed three times with PBS and incubated with adequate secondary anti-rat antibody. Positive reactions were visualized by incubating the slides in stable 3,3′-diaminobenzidine for 5-10 min. The sections were rinsed with distilled water, counter-stained with Gill's haematoxylin for 1 min, and mounted with Universal Mount (Research Genetics). […] Mouse placenta was used as a positive control. For quantification, 3 independent visual fields were chosen and positive stained spots or vessels with lumen were counted.
The Percent Induction for a treatment is the difference in CD31 counts between the treatment (+bFGF) and the vehicle alone (no bFGF), divided by the difference in CD31 counts between the vehicle with bFGF and the vehicle alone (no bFGF), expressed as a percentage.

| Structure (SMILES) | Percent Induction (blood content relative to vehicle + bFGF minus vehicle alone) [1] [%] | Average blood content (from haemoglobin content) [1] [µL] | Average chamber weight [1] [g] | Percent Induction (CD31 counts relative to vehicle + bFGF minus vehicle alone) [2] [%] | Average number of blood vessels (CD31 counts) [2] | also measured |
| --- | --- | --- | --- | --- | --- | --- |
| C[C@@H]1CC[C@@]2(OC1)O[C@H]1C[C@H]3[C@@H]4CC=C5C[C@@H](O[C@@H]6O[C@H](CO)[C@@H](O[C@@H]7O[C@H](CO)[C@@H](O)[C@H](O)[C@H]7O)[C@H](O)[C@H]6O[C@@H]6O[C@@H](C)[C@H](O)[C@@H](O)[C@H]6O)CC[C@]5(C)[C@H]4CC[C@]3(C)[C@H]1[C@@H]2C [Deltonin, diosgenin Rha2, [Glc4], Glc] | 20 | 0.79 | 0.126 | 61 | 44 | Branches Mean (aortic explants; 0.01 μM deltonin): 16; Sprouts Mean (aortic explants; 0.01 μM deltonin): 11; Branches Mean (aortic explants; 0.03 μM deltonin): 26; Sprouts Mean (aortic explants; 0.03 μM deltonin): 18; Branches Mean (aortic explants; 0.1 μM deltonin): 24; Sprouts Mean (aortic explants; 0.1 μM deltonin): 18; Branches Mean (aortic explants; 0.3 μM deltonin): 20; Sprouts Mean (aortic explants; 0.3 μM deltonin): 16; Branches Mean (aortic explants; 1 μM deltonin): 16; Sprouts Mean (aortic explants; 1 μM deltonin): 13; Branches Mean (aortic explants; 3 μM deltonin): 0; Sprouts Mean (aortic explants; 3 μM deltonin): 0; Branches Mean (aortic explants; 10 μM deltonin): 0; Sprouts Mean (aortic explants; 10 μM deltonin): 0; vessel branches from aortic explants in comparison to DMSO treated control explant cultures (aortic explants; at 10, 3 and 1 μM): significantly inhibited; vessel sprouts from aortic explants in comparison to DMSO treated control explant cultures (aortic explants; at 10 and 3 μM): significantly inhibited |
| C[C@@H]1CC[C@@]2(OC1)O[C@H]1C[C@H]3[C@@H]4CC=C5C[C@@H](O[C@@H]6O[C@H](CO)[C@@H](O[C@@H]7O[C@@H](C)[C@H](O)[C@@H](O)[C@H]7O)[C@H](O)[C@H]6O[C@@H]6O[C@@H](C)[C@H](O)[C@@H](O)[C@H]6O)CC[C@]5(C)[C@H]4CC[C@]3(C)[C@H]1[C@@H]2C [Dioscin, diosgenin Rha2, [Rha4], Glc] | 45 | 1.24 | 0.131 | 49 | 35 |  |
| C[C@@H]1CC[C@@]2(OC1)O[C@H]1C[C@H]3[C@@H]4CC=C5C[C@@H](O[C@@H]6O[C@H](CO)[C@@H](O)[C@H](O)[C@H]6O[C@@H]6O[C@@H](C)[C@H](O)[C@@H](O)[C@H]6O)CC[C@]5(C)[C@H]4CC[C@]3(C)[C@H]1[C@@H]2C [Prosapogenin A, diosgenin Rha2, Glc] | 84 | 1.92 | 0.389 | 29 | 21 |  |
| CNC(=O)c1cc(Oc2ccc(NC(=O)Nc3ccc(Cl)c(C(F)(F)F)c3)cc2)ccn1 [Sorafenib, reference compound] | 27 | 0.92 | 0.322 | 3 | 2 |  |
| C[C@@H]1CC[C@@]2(OC1)O[C@H]1C[C@H]3[C@@H]4CC=C5C[C@@H](O[C@@H]6O[C@H](CO)[C@@H](O)[C@H](O)[C@H]6O)CC[C@]5(C)[C@H]4CC[C@]3(C)[C@H]1[C@@H]2C [Trillin, diosgenin-Glc] | 58 | 1.46 | 0.421 | 57 | 41 |  |
